Source: patent US9440982B2 (Eolas Therapeutics, Inc., priority 2012, dated 2016)
pIC50: −log10 of the molar value. Like-named read-outs stand apart in the source and are kept apart here.

Tests used:
OX1 = target: T1, OX1 (Homo sapiens, UniProt O43613); test: Orexin receptor cell-based functional assay, [Ca2+]i by FLIPR, CHO-OX1 cells
T1 construct: expressed in transfected cells; host or cells: CHO (CHO-OX1, kept under selection antibiotic)
T1 sequence (O43613 1-425): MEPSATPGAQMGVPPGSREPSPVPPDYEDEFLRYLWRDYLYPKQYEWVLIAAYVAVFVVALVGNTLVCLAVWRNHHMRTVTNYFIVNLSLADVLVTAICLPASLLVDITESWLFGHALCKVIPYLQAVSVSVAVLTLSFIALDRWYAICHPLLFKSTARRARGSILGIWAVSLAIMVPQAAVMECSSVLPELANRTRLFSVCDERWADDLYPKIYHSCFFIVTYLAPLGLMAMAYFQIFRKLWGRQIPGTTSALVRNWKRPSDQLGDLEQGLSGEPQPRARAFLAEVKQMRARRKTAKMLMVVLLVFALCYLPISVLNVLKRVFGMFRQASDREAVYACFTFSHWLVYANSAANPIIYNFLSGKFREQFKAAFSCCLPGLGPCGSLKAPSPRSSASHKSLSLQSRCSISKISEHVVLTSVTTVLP
Method in brief: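 CHO cells expressing human OX1 or OX2 loaded with calcium dye plus 2.5 mM probenecid at 37° C (calcium4, 30 min, or calcium6, 2 h), then exposed to compounds (0.1 nM-10 μM) for 30 min. Intracellular Ca2+ measured on FLIPR; antagonist format.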

CYP3A4 = target: T2, CYP3A4 (Homo sapiens, UniProt P08684); test: Cytochrome P450 inhibition assay (midazolam hydroxylation); type: in vitro ADME; conditions: human, human liver microsomes, probe midazolam (hydroxylation to 1′-hydroxymidazolam), 10 μM test compound, midazolam at approximately its Km
T2 construct: pre-incubated with human liver microsomes and NADPH; from tissue; host or cells: human liver microsomes
Method in brief: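 Human liver microsomes; CYP3A4 activity as midazolam 1′-hydroxylation with substrate near Km, with or without 10 μM test compound, read as percent inhibition. For time-dependent inhibition, parallel samples were preincubated 30 min with NADPH before substrate, and percent inhibition compared with non-preincubated samples.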

[1] = CHO-OX1 cells, [Ca2+]i by FLIPR, antagonist dose-range 0.1 nM-10 μM, EC90 of OXA, read-out: OX1

T2 sequence (P08684 whole entry): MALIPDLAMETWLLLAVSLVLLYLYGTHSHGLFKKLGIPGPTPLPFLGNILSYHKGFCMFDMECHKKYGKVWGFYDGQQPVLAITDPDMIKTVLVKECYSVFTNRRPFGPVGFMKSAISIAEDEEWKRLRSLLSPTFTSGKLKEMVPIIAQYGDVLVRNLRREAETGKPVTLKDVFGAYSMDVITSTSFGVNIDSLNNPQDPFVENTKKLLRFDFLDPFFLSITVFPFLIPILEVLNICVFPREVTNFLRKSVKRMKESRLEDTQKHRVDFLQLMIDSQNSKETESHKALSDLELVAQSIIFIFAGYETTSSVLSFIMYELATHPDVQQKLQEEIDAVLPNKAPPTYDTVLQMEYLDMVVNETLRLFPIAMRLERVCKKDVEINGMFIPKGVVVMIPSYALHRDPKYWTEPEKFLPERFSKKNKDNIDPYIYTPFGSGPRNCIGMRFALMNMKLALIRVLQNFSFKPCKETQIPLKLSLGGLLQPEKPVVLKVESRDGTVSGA

SMILES	pIC50 (OX1; [1])	pIC50 (OX1; Table 6, racemate vs enantiomers, read-out: OX1 IC50)	inhibition at 10 µM (CYP3A4) [%]
Cc1nc(C(=O)N2CCC[C@H](C)[C@@H]2CNc2ccc(C(F)(F)F)cn2)c(-c2ccc(F)cc2)s1 [Example A43, (5-(4-Fluorophenyl)-2-methylthiazol-4-yl)((2R,3S)-3-methyl-2-(((5-(trifluoromethyl)pyridin-2-yl)amino)methyl)piperidin-1-yl)methanone]	6.17	6.17	55
Cc1ccc(-c2ncccn2)c(C(=O)N2CCC[C@@H](C)[C@H]2CNc2nc3cc(F)ccc3o2)c1 [Example A206, ((2S,3R)-2-(((5-Fluorobenzo[d]oxazol-2-yl)amino)methyl)-3-methylpiperidin-1-yl)(5-methyl-2-(pyrimidin-2-yl)phenyl)methanone]	8.22	–	58
COc1cccc(NC[C@@H]2[C@H](C)CCCN2C(=O)c2cc(C)ccc2-n2nccn2)n1 [Example A80, ((2S,3R)-2-(((6-Methoxypyridin-2-yl)amino)methyl)-3-methylpiperidin-1-yl)(5-methyl-2-(2H-1,2,3-triazol-2-yl)phenyl)methanone]	5.73	–	28
Cc1ccc(-c2ncccn2)c(C(=O)N2CCC[C@@H](C)[C@H]2CNc2nc3cc(Cl)ccc3o2)c1 [Example A205, ((2S,3R)-2-(((5-Chlorobenzo[d]oxazol-2-yl)amino)methyl)-3-methylpiperidin-1-yl)(5-methyl-2-(pyrimidin-2-yl)phenyl)methanone]	7.96	–	72
Cc1ccc(-c2ncccn2)c(C(=O)N2CCC[C@@H](C)[C@H]2CNc2ccc(C(F)(F)F)nn2)n1 [Example A185, ((2S,3R)-3-Methyl-2-(((6-(trifluoromethyl)pyridazin-3-yl)amino)methyl)piperidin-1-yl)(6-methyl-3-(pyrimidin-2-yl)pyridin-2-yl)methanone]	7.34	–	33
Cc1ccc(-n2ccc(C)n2)c(C(=O)N2CCC[C@@H](C)[C@H]2CNc2nnc(C(F)(F)F)s2)c1 [Example A132, ((2S,3R)-3-Methyl-2-(((5-(trifluoromethyl)-1,3,4-thiadiazol-2-yl)amino)methyl)piperidin-1-yl)(5-methyl-2-(3-methyl-1H-pyrazol-1-yl)phenyl)methanone]	6.80	–	81
Cc1cccc(C(=O)N2CCC[C@@H](C)[C@H]2CNc2ccc(C(F)(F)F)cn2)c1-c1ncccn1 [Example A298, ((2S,3R)-3-Methyl-2-(((5-(trifluoromethyl)pyridin-2-yl)amino)methyl)piperidin-1-yl)(3-methyl-2-(pyrimidin-2-yl)phenyl)methanone]	8.30	–	75
Cc1ccc(-n2nccn2)c(C(=O)N2CCC[C@@H](C)[C@H]2CNc2nc(C(F)(F)F)cs2)c1 [Example A123, ((2S,3R)-3-Methyl-2-(((4-(trifluoromethyl)thiazol-2-yl)amino)methyl)piperidin-1-yl)(5-methyl-2-(2H-1,2,3-triazol-2-yl)phenyl)methanone]	6.39	–	97
Cc1ccc(-n2cnc(C)n2)c(C(=O)N2CCC[C@@H](C)[C@H]2CNc2ccc(C(F)(F)F)cn2)c1 [Example A17, ((2S,3R)-3-Methyl-2-(((5-(trifluoromethyl)pyridin-2-yl)amino)methyl)piperidin-1-yl)(5-methyl-2-(3-methyl-1H-1,2,4-triazol-1-yl)phenyl)methanone]	7.70	–	95
Cc1ccc(NC[C@@H]2[C@H](C)CCCN2C(=O)c2cc(C)ccc2-c2ccccn2)nc1 [Example A59, ((2S,3R)-3-Methyl-2-(((5-methylpyridin-2-yl)amino)methyl)piperidin-1-yl)(5-methyl-2-(pyridin-2-yl)phenyl)methanone]	7.30	–	87
Cc1ccc(-c2ccn(C)n2)c(C(=O)N2CCC[C@@H](C)[C@H]2CNc2ccc(C(F)(F)F)cn2)c1 [Example A18, ((2S,3R)-3-Methyl-2-(((5-(trifluoromethyl)pyridin-2-yl)amino)methyl)piperidin-1-yl)(5-methyl-2-(1-methyl-1H-pyrazol-3-yl)phenyl)methanone]	8.15	–	95
Cc1ccc(-c2cnn(C)c2)c(C(=O)N2CCC[C@@H](C)[C@H]2CNc2nc3ccc(Cl)cc3o2)c1 [Example A10, ((2S,3R)-2-(((6-Chlorobenzo[d]oxazol-2-yl)amino)methyl)-3-methylpiperidin-1-yl)(5-methyl-2-(1-methyl-1H-pyrazol-4-yl)phenyl)methanone]	7.09	–	98
Cc1ccc(-c2ccccn2)c(C(=O)N2CCC[C@@H](C)[C@H]2CNc2ccc(C(F)(F)F)cn2)c1 [Example A9, ((2S,3R)-3-Methyl-2-(((5-(trifluoromethyl)pyridin-2-yl)amino)methyl)piperidin-1-yl)(5-methyl-2-(pyridin-2-yl)phenyl)methanone]	8.05	–	89
Cc1ccc(-n2ncc(C)n2)c(C(=O)N2CCC[C@@H](C)[C@H]2CNc2ccc(Cl)cn2)c1 [Example A121, ((2S,3R)-2-(((5-Chloropyridin-2-yl)amino)methyl)-3-methylpiperidin-1-yl)(5-methyl-2-(4-methyl-2H-1,2,3-triazol-2-yl)phenyl)methanone]	8.30	–	84
Cc1ccc(-c2ccc(C(F)(F)F)cn2)c(C(=O)N2CCC[C@@H](C)[C@H]2CNc2ccc(Cl)cn2)c1 [Example A158, ((2S,3R)-2-(((5-Chloropyridin-2-yl)amino)methyl)-3-methylpiperidin-1-yl)(5-methyl-2-(5-(trifluoromethyl)pyridin-2-yl)phenyl)methanone]	6.66	–	83
C[C@@H]1CCCN(C(=O)c2cc(Cl)ccc2-n2nccn2)[C@@H]1CNc1ncc(C(F)(F)F)cn1 [Example A160, (5-Chloro-2-(2H-1,2,3-triazol-2-yl)phenyl)((2S,3R)-3-methyl-2-(((5-(trifluoromethyl)pyrimidin-2-yl)amino)methyl)piperidin-1-yl)methanone]	9.00	–	59
CCn1cc(-c2ccc(C)cc2C(=O)N2CCC[C@@H](C)[C@H]2CNc2ccc(C(F)(F)F)cn2)cn1 [Example A110, (2-(1-Ethyl-1H-pyrazol-4-yl)-5-methylphenyl)((2S,3R)-3-methyl-2-(((5-(trifluoromethyl)pyridin-2-yl)amino)methyl)piperidin-1-yl)methanone]	7.80	–	95
C[C@@H]1CCCN(C(=O)c2cc(Cl)ccc2-c2ncccn2)[C@@H]1CNc1ncc(Cl)cn1 [Example A202, (5-Chloro-2-(pyrimidin-2-yl)phenyl)((2S,3R)-2-(((5-chloropyrimidin-2-yl)amino)methyl)-3-methylpiperidin-1-yl)methanone]	7.74	–	44
Cc1cccc(-c2ncccn2)c1C(=O)N1CCC[C@@H](C)[C@H]1CNc1ncc(C(F)(F)F)cn1 [Example A307, ((2S,3R)-3-Methyl-2-(((5-(trifluoromethyl)pyrimidin-2-yl)amino)methyl)piperidin-1-yl)(2-methyl-6-(pyrimidin-2-yl)phenyl)methanone]	6.60	–	46
Cc1ccc(-n2nccn2)c(C(=O)N2CCC[C@@H](C)[C@H]2CNc2nc3ccc(Cl)cc3o2)c1 [Example A14, ((2S,3R)-2-(((6-Chlorobenzo[d]oxazol-2-yl)amino)methyl)-3-methylpiperidin-1-yl)(5-methyl-2-(2H-1,2,3-triazol-2-yl)phenyl)methanone]	8.00	–	80
C[C@@H]1CCCN(C(=O)c2cc(F)ccc2-n2nccn2)[C@@H]1CNc1ccc(C(F)(F)F)nn1 [Example A208, (5-Fluoro-2-(2H-1,2,3-triazol-2-yl)phenyl)((2S,3R)-3-methyl-2-(((6-(trifluoromethyl)pyridazin-3-yl)amino)methyl)piperidin-1-yl)methanone]	6.70	–	59
Cc1ccc(-c2cnn(C)c2)c(C(=O)N2CCC[C@@H](C)[C@H]2CNc2cccc(C)n2)c1 [Example A87, ((2S,3R)-3-Methyl-2-(((6-methylpyridin-2-yl)amino)methyl)piperidin-1-yl)(5-methyl-2-(1-methyl-1H-pyrazol-4-yl)phenyl)methanone]	6.66	–	73
Cc1ccc(-c2ccccn2)c(C(=O)N2CCC[C@@H](C)[C@H]2CNc2nc3cc(Cl)ccc3o2)n1 [Example A199, ((2S,3R)-2-(((5-Chlorobenzo[d]oxazol-2-yl)amino)methyl)-3-methylpiperidin-1-yl)(6′-methyl-[2,3′-bipyridin]-2′-yl)methanone]	7.82	–	62
